From ChEMBL document CHEMBL4507275, “Data for DCP probe BI-2545” (2021)

How the values were obtained:
[1] = target: 5'-AMP-activated protein kinase catalytic subunit alpha-2 (Homo sapiens) (UniProt P54646); conditions: Compound concentration 1000.0 nM
[2] = target: Serine/threonine-protein kinase 26 (Homo sapiens) (UniProt Q9P289); conditions: Compound concentration 1000.0 nM
[3] = tested on: Phosphatidylinositol 4,5-bisphosphate 3-kinase catalytic subunit alpha isoform (Homo sapiens), P42336 [M1043I]; conditions: Compound concentration 1000.0 nM
[4] = target: Non-receptor tyrosine-protein kinase TYK2 (Homo sapiens) (UniProt P29597); conditions: Compound concentration 1000.0 nM
[5] = target: Serine/threonine-protein kinase Nek10 (Homo sapiens) (UniProt Q6ZWH5); conditions: Compound concentration 1000.0 nM
Serine/threonine-protein kinase Nek10 (Homo sapiens), sequence (Q6ZWH5 whole entry): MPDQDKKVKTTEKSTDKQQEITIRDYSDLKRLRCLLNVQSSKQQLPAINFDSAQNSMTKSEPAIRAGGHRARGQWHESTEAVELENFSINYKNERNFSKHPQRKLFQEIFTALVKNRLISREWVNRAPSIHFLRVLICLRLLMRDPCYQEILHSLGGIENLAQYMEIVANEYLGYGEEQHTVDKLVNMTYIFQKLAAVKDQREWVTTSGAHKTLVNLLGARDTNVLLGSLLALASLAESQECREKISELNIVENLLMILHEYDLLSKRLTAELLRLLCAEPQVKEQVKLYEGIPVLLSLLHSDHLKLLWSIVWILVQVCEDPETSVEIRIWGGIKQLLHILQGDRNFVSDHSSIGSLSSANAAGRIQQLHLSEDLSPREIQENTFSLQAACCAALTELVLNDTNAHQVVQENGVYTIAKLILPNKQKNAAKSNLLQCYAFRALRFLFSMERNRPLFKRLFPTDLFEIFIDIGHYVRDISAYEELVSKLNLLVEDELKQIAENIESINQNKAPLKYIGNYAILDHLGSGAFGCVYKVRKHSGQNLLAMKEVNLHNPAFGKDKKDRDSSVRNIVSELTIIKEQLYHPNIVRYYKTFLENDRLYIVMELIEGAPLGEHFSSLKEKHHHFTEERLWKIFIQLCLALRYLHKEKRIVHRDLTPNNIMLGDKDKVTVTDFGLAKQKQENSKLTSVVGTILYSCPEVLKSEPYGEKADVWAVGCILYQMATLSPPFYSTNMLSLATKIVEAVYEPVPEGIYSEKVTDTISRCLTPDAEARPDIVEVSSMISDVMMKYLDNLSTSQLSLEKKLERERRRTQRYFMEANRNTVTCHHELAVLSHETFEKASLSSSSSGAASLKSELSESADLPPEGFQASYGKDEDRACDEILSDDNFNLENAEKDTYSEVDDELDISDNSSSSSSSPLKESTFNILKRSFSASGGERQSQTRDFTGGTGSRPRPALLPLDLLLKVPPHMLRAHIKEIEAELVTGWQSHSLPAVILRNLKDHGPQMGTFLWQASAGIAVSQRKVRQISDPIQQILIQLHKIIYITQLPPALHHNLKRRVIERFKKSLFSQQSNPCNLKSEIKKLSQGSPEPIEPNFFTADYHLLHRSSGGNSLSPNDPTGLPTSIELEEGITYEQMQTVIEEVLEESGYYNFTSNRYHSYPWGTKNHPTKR

[6] = target: Phosphatidylinositol 4-kinase beta (Homo sapiens) (UniProt Q9UBF8); conditions: Compound concentration 1000.0 nM
Phosphatidylinositol 4-kinase beta (Homo sapiens), sequence (Q9UBF8 2-816 limits assumed): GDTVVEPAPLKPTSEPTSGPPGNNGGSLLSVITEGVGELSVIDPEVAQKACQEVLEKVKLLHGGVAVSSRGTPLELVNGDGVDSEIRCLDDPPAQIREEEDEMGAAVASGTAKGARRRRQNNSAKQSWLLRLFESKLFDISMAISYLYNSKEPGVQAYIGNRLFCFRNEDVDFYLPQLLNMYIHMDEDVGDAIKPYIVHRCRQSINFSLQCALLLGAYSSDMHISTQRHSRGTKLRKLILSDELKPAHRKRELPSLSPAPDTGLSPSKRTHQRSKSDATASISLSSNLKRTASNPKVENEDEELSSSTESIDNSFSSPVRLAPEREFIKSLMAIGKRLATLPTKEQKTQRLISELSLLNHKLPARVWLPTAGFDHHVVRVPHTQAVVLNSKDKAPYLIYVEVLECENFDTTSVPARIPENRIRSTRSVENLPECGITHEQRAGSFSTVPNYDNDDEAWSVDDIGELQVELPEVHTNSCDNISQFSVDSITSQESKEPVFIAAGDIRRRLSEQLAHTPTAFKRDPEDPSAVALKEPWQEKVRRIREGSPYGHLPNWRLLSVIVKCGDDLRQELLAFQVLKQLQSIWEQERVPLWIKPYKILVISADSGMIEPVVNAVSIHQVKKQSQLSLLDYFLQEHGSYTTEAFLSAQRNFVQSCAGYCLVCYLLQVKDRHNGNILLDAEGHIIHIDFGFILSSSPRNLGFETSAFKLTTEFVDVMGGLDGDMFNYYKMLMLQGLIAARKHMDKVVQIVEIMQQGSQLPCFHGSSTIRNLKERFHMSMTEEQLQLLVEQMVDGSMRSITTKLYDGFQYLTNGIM

[7] = target: cAMP-dependent protein kinase catalytic subunit beta (Homo sapiens) (UniProt P22694); conditions: Compound concentration 1000.0 nM
[8] = target: Angiopoietin-1 receptor (Homo sapiens) (UniProt Q02763); conditions: Compound concentration 1000.0 nM
[9] = target: Tyrosine-protein kinase ZAP-70 (Homo sapiens) (UniProt P43403); conditions: Compound concentration 1000.0 nM
Tyrosine-protein kinase ZAP-70 (Homo sapiens), sequence (P43403 whole entry): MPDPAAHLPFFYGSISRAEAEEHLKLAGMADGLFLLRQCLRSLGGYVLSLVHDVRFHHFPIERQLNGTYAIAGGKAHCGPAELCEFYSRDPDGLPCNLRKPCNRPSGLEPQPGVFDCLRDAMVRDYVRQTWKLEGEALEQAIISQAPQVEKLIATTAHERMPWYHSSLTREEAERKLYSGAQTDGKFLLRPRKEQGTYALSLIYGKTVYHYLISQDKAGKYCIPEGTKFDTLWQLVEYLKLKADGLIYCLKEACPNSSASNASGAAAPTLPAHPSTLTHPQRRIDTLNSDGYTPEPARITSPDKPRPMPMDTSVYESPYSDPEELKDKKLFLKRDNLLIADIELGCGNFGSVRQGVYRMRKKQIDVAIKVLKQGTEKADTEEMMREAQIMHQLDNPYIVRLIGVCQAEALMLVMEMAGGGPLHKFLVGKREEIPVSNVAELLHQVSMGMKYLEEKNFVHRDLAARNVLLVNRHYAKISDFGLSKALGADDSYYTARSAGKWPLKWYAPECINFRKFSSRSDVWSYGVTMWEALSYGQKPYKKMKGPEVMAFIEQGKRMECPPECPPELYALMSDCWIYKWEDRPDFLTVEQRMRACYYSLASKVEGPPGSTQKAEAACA

[10] = target: Peripheral plasma membrane protein CASK (Homo sapiens) (UniProt O14936); conditions: Compound concentration 1000.0 nM
[11] = target: Mitogen-activated protein kinase kinase kinase kinase 2 (Homo sapiens) (UniProt Q12851); conditions: Compound concentration 1000.0 nM
[12] = tested on: Receptor-type tyrosine-protein kinase FLT3 (Homo sapiens), P36888 [R834Q]; conditions: Compound concentration 1000.0 nM
[13] = target: Fibroblast growth factor receptor 1 (Homo sapiens) (UniProt P11362); conditions: Compound concentration 1000.0 nM
[14] = target: Serine/threonine-protein kinase D3 (Homo sapiens) (UniProt O94806); conditions: Compound concentration 1000.0 nM
[15] = target: T1, Alpha-2A adrenergic receptor (Homo sapiens) (UniProt P08913); conditions: Compound concentration 10.0 uM
T1 sequence (whole entry): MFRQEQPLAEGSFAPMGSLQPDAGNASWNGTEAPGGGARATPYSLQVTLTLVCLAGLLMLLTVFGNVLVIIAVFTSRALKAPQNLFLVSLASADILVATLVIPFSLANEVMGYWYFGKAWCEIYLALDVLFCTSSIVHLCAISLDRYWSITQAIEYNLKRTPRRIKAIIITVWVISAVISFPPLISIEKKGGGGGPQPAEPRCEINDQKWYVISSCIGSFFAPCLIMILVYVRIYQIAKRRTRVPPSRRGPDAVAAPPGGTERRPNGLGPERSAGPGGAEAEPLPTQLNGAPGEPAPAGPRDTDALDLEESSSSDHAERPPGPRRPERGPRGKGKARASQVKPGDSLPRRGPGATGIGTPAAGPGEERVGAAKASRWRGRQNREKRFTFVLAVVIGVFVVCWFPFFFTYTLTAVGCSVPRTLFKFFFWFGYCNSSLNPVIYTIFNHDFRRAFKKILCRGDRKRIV

[16] = target: 5-hydroxytryptamine receptor 2C (Homo sapiens) (UniProt P28335); conditions: Compound concentration 10.0 uM
[17] = target: Phosphatidylinositol 3-kinase catalytic subunit type 3 (Homo sapiens) (UniProt Q8NEB9); conditions: Compound concentration 1000.0 nM
[18] = target: Ephrin type-A receptor 2 (Homo sapiens) (UniProt P29317); conditions: Compound concentration 1000.0 nM
[19] = target: Serine/threonine-protein kinase MRCK gamma (Homo sapiens) (UniProt Q6DT37); conditions: Compound concentration 1000.0 nM
[20] = target: GABA-A receptor; anion channel (Rattus norvegicus) (UniProt O09028+P15431+P18506+P18508+P19969+P20236+P23574+P23576+P28471+P28473+P30191+P62813+P63079+P63138+Q91ZM7+Q9ES14); conditions: Compound concentration 10.0 uM
[21] = target: Calcium-dependent protein kinase 1 (Plasmodium falciparum) (UniProt P62344); conditions: Compound concentration 1000.0 nM
[22] = target: Serine/threonine-protein kinase D2 (Homo sapiens) (UniProt Q9BZL6); conditions: Compound concentration 1000.0 nM
[23] = target: Activin receptor type-1B (Homo sapiens) (UniProt P36896); conditions: Compound concentration 1000.0 nM
[24] = target: Alpha-2C adrenergic receptor (Homo sapiens) (UniProt P18825); conditions: Compound concentration 10.0 uM
[25] = tested on: Tyrosine-protein kinase ABL1 (Homo sapiens), P00519 [Q252H]; conditions: Compound concentration 1000.0 nM
[26] = target: Atypical kinase COQ8A, mitochondrial (Homo sapiens) (UniProt Q8NI60); conditions: Compound concentration 1000.0 nM
Atypical kinase COQ8A, mitochondrial (Homo sapiens), sequence (Q8NI60 163-647 limits assumed): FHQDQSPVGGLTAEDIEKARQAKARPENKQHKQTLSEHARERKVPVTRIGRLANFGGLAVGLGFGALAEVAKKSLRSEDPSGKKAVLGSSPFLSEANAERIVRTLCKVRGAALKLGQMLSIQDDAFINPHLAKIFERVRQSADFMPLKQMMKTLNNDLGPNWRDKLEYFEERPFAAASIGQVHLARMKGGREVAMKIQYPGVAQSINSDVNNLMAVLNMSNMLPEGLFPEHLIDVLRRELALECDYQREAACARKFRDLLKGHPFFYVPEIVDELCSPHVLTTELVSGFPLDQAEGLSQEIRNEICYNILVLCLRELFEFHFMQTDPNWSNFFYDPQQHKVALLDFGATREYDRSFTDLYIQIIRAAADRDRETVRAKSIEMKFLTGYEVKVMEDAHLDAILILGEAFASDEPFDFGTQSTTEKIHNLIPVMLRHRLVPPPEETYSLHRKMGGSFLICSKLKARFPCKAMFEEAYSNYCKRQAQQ

[27] = target: Tyrosine-protein kinase JAK1 (Homo sapiens) (UniProt P23458); conditions: Compound concentration 1000.0 nM
[28] = target: LIM domain kinase 2 (Homo sapiens) (UniProt P53671); conditions: Compound concentration 1000.0 nM
[29] = target: Activated CDC42 kinase 1 (Homo sapiens) (UniProt Q07912); conditions: Compound concentration 1000.0 nM
[30] = target: Serine/threonine-protein kinase PLK4 (Homo sapiens) (UniProt O00444); conditions: Compound concentration 1000.0 nM
[31] = target: Serine/threonine-protein kinase WNK1 (Homo sapiens) (UniProt Q9H4A3); conditions: Compound concentration 1000.0 nM
[32] = target: Sodium-dependent serotonin transporter (Homo sapiens) (UniProt P31645); conditions: Compound concentration 10.0 uM
[33] = target: Protein kinase C epsilon type (Homo sapiens) (UniProt Q02156); conditions: Compound concentration 1000.0 nM
[34] = target: Phosphorylase b kinase regulatory subunit alpha, liver isoform (Homo sapiens) (UniProt P46019); conditions: Compound concentration 1000.0 nM
Phosphorylase b kinase regulatory subunit alpha, liver isoform (Homo sapiens), sequence (P46019 whole entry, canonical isoform): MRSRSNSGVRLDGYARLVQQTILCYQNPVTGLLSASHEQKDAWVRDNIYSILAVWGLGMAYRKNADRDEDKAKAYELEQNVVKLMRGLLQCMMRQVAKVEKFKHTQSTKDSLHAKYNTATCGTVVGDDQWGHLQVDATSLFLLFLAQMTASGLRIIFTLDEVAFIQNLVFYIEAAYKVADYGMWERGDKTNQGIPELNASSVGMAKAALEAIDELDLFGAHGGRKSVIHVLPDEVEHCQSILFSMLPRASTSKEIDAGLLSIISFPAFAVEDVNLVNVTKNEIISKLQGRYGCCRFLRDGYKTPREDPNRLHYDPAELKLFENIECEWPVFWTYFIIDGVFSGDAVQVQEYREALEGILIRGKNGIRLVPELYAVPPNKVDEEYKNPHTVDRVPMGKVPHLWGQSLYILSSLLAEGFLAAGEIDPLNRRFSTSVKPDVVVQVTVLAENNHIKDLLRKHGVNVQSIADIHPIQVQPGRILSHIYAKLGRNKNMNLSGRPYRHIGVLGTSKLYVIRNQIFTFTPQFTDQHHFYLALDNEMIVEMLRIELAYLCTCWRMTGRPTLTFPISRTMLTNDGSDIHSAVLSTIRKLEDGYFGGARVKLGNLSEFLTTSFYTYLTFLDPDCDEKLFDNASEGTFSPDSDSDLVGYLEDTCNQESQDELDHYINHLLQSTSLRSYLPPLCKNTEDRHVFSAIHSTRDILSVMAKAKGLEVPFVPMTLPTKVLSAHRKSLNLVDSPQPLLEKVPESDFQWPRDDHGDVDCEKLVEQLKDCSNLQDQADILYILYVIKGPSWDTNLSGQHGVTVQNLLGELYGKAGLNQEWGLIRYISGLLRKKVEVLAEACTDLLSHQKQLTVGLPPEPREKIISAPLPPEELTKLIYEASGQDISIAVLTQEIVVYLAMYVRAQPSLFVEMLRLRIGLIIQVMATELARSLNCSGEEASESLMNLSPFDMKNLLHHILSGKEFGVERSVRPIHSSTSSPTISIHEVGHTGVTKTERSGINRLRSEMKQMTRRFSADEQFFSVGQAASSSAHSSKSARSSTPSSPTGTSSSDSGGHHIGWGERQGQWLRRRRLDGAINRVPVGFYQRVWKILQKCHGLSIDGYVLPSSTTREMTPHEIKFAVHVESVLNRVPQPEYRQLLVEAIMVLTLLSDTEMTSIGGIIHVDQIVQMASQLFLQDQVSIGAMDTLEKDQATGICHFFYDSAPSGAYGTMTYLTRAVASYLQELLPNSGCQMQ

[35] = target: Hormonally up-regulated neu tumor-associated kinase (Homo sapiens) (UniProt P57058); conditions: Compound concentration 1000.0 nM
[36] = target: Interferon-induced, double-stranded RNA-activated protein kinase (Homo sapiens) (UniProt P19525); conditions: Compound concentration 1000.0 nM
[37] = target: G protein-coupled receptor kinase 3 (Homo sapiens) (UniProt P35626); conditions: Compound concentration 1000.0 nM

5'-AMP-activated protein kinase catalytic subunit alpha-2 (Homo sapiens), sequence (P54646 whole entry, looked up): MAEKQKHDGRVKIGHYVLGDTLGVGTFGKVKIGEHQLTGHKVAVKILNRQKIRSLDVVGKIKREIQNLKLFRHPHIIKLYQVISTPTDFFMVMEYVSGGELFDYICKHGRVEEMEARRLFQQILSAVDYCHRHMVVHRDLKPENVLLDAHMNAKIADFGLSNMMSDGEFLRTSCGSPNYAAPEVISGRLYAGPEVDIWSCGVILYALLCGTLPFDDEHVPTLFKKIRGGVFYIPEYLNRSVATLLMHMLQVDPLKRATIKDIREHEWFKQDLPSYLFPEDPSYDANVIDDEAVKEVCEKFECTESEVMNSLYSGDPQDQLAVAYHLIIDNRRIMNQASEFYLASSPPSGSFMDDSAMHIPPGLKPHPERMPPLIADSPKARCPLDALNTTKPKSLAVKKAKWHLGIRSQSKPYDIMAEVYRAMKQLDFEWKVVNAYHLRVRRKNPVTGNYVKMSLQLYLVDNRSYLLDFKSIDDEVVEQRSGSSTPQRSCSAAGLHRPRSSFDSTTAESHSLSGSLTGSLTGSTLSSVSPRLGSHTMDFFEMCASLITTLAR

SMILES	residual activity [1] [%]	residual activity [2] [%]	residual activity [3] [%]	residual activity [4] [%]	residual activity [5] [%]	residual activity [6] [%]	residual activity [7] [%]	residual activity [8] [%]	residual activity [9] [%]	residual activity [10] [%]	residual activity [11] [%]	residual activity [12] [%]	residual activity [13] [%]	residual activity [14] [%]	inhibition [15] [%]	inhibition [16] [%]	residual activity [17] [%]	residual activity [18] [%]	residual activity [19] [%]	inhibition [20] [%]	also measured
O=C(NC[C@@H]1[C@H]2CN(C(=O)OCc3cc(C(F)(F)F)cc(C(F)(F)F)c3)C[C@@H]12)c1ccc2[nH]nnc2c1 [BI 2545]	100	76	95	100	73	100	100	89	60	70	92	88	90	83	14.3	41.5	72	79	90	-4.02	residual activity [21]: 99%; residual activity [22]: 85%; residual activity [23]: 100%; inhibition [24]: 19%; residual activity [25]: 100%; residual activity [26]: 100%; residual activity [27]: 89%; residual activity [28]: 83%; residual activity [29]: 100%; residual activity [30]: 82%; residual activity [31]: 90%; inhibition [32]: -9.34%; residual activity [33]: 100%; residual activity [34]: 100%; residual activity [35]: 100%; residual activity [36]: 45%; residual activity [37]: 90%
Cc1nccc(COC(=O)N2C[C@@H]3[C@@H](CNC(=O)c4ccc5[nH]nnc5c4)[C@@H]3C2)n1 [BI 3017]	97	77	100	82	92	97	98	90	97	72	84	85	91	100	2.2	31.1	94	92	92	14.2	residual activity [21]: 100%; residual activity [22]: 92%; residual activity [23]: 92%; inhibition [24]: 3.82%; residual activity [25]: 93%; residual activity [26]: 84%; residual activity [27]: 92%; residual activity [28]: 92%; residual activity [29]: 100%; residual activity [30]: 83%; residual activity [31]: 86%; inhibition [32]: -3.25%; residual activity [33]: 100%; residual activity [34]: 97%; residual activity [35]: 81%; residual activity [36]: 100%; residual activity [37]: 70%
